Measured values published in patent EP4818330A1, “PHARMACEUTICAL PREPARATION FOR DIAGNOSING AND TREATING ALZHEIMER'S DISEASE” (Shanghai East Hospital Tongji University, priority 2023, dated 2025).

Tests used:
293T cell line = assay: CCK8 cell viability (toxicity) assay in 293T cell line; assay type: cell-based; settings: Homo sapiens, HEK-293T; CCK8 toxicity test, 293T cell line
Source text: (§1) The CCK8 cell viability assay (CCK8) was adopted. Its principle is mainly based on the reduction reaction of WST-8 (chemical name: 2-(2-methoxy-4-nitrophenyl)-3-(4-nitrophenyl)-5-(2,4-disulfophenyl)-2H-tetrazolium monosodium salt). In the presence of living cells, WST-8 can be reduced by dehydrogenases in mitochondria to generate a highly water-soluble orange-yellow formazan product. The color intensity is directly proportional to the number of living cells, wherein the quantity of living cells can be indirectly reflected by measuring the absorbance of formazan products (typically at a wavelength of 450 nm). The CCK-8 assay is widely used in cell proliferation assay, cytotoxicity assay and tumor drug sensitivity test.
In in vitro experiments, the compound stock solution was prepared into 10 mM with DMSO and diluted with a culture medium before use. The 293T cell line was used for preliminary concentration screening of the compound, wherein concentration gradients were set as follows: 5 µmol, 10 µmol, 20 µmol, 40 µmol, 80 µmol and 160 µmol. After the cells were treated with the compound for 24 h, the CCK8 detection kit was used, wherein the cell viability was calculated based on the absorbance values detected by a microplate reader. Data processing was performed using GraphPad Prism software to plot the IC50 curve.

primary neurons = assay: CCK8 cell viability (toxicity) assay in primary neurons; assay type: cell-based, mouse; settings: Mus musculus, Primary neuron, CCK8 toxicity test
Source text: as §1
Primary hippocampal neuron culture: After ICR fetal mice at 18-21 days of gestation (E18-E21) were anesthetized, the fetal mice were dissected in a clean area and immersed in 75% ethanol for 1-2 min. The mouse head was taken out, the surface skull was removed with micro-scissors, and the brain tissue was transferred to an anatomical dissociation solution. Under a microscope, blood vessels and meninges were removed, hippocampal tissue was isolated, the extracted hippocampal tissue was placed in a 3.5 cm dish containing the anatomical dissociation solution, and the hippocampal tissue was cut into small fragments using micro-scissors. The minced hippocampal tissue was transferred to a 7 ml EP tube using a pipette gun. The hippocampal tissue hereinabove was centrifuged at 1000 rpm for 3-5 min, and the anatomical separation solution was discarded. 0.5-1 ml of papain digestion solution was added to the EP tube hereinabove, and the EP tube was placed in a 37°C incubator for 30 min. 300 µL of Trituration buffer 300 (DNase) and 5 mL of complete medium were added, and the hippocampal tissue was gently pipetted more than 10 times. The cell suspension was allowed to stand for 3 min, and 3-4 ml of supernatant was gently aspirated into a 15 ml tube using a pipette. 3-4 ml of complete medium was added again, and the hippocampal tissue was gently pipetted more than 10 times. Step 8 was repeated, and 3-4 ml of supernatant was transferred to the same 15 ml tube again. The previous step was repeated again. The collected supernatant was centrifuged at 1000 rpm, the supernatant was discarded, and 5 ml of complete medium was added. The mixture was gently pipetted and suspended, and then centrifuged again at 1000 rpm for 5 min. The complete medium was added to resuspend the cells, and then a portion of the cells was aspirated for counting. Generally, when neuronal cells were planted in a 24-well plate, the concentration of the cell suspension was generally 2×10^5/ml, and 500 µl of cells is inoculated per well. The resuspended neuron cells with a diluted ratio were seeded onto a glass slide treated with PDL, then the glass slide was placed in a 37°C incubator for 10 min, an appropriate amount of complete medium was added, and then the culture is continued in the incubator.

**Q.** How did the IC50 (293T cell line) turn out when `O=C(NC1CN(c2ccncn2)CC1CO)c1ccc2ncccc2c1` (centres unmarked) [compound of Formula II, N-[4-(HYDROXYMETHYL)-1-(PYRIMIDIN-4-YL)PYRROLIDIN-3-YL]QUINOLINE-6-CARBOXAMIDE] was run?
**A.** Its IC50 is 38.6 µM.

**Q.** What about the IC50 (primary neurons) of the same molecule?
**A.** Its IC50 is 1.67 µM.
